The values that follow come from patent US10098878B2, “HIF-2α inhibitors for treating iron overload disorders” (The Board of Regents of the University of Texas System, priority 2014, dated 2018).

What is called IC50 is the concentration at which inhibition is half-maximal.

The structures appear in SMILES notation.

For the experiment, the target named is T1, HIF-2α HIS TAG-PASB Domain (Homo sapiens, UniProt Q99814).
T1 construct: 100 nM HIF-2α HIS TAG-PASB Domain
T1 sequence (Q99814 240-350 limits assumed): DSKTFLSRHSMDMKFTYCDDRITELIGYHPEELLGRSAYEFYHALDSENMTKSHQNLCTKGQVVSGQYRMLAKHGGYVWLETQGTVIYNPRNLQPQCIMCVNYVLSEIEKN
The experiment is described as follows: HIF-2α Scintillation Proximity Assay (SPA). It counts as binding. The following applies: 150 nM Compound 211 probe, 100 nM HIF-2α HIS TAG-PASB Domain; read-out: SPA IC50. The procedure:
The total assay volume was about 100 μL in the following configuration: 2 μL compound in 100% DMSO, 88 μL buffer with protein and probe and 10 μL of SPA beads. […] The percent inhibition was determined and IC50 values were calculated using the Dotmatics system based on the following equation: % inhibition=[(high control−sample)/(high control−low control)]×100.
Take `CC(C)(C)OC(=O)N[C@H]1C[C@@H](O)c2c(S(=O)(=O)C(F)(F)F)ccc(Oc3cc(F)cc(C#N)c3)c21` (relative stereo) [Compound 42, tert-butyl(cis-7-(3-cyano-5-fluorophenoxy)-3-hydroxy-4-((trifluoromethyl)sulfonyl)-2,3-dihydro-1H-inden-1-yl)carbamate]: the IC50 is 2200 nM.
In the case of `N#CN=S(=O)(CF)c1ccc(Oc2cc(F)cc(C#N)c2)c2c1[C@H](O)[C@H](F)C2` (single isomer, unassigned) [Compound 41] it was 130 nM; in that of `N#CN=S(=O)(CF)c1ccc(Oc2cc(F)cc(C#N)c2)c2c1[C@H](O)CC2` (single isomer, unassigned) [Compound 46], 7200 nM.
In the case of `N#CN=S(=O)(CF)c1ccc(Oc2cc(F)cc(C#N)c2)c2c1[C@H](O)CC2` (single isomer, unassigned) [Compound 47], the IC50 is 1400 nM.
`N#CN=S(=O)(CF)c1ccc(Oc2cc(F)cc(C#N)c2)c2c1[C@H](O)C(F)(F)C2` (single isomer, unassigned) [Compound 50]: the IC50 worked out at 24 nM.
In the case of `N#CN=S(=O)(c1ccc(Oc2cc(F)cc(C#N)c2)c2c1[C@H](O)[C@H](F)C2)C(F)F` (single isomer, unassigned) [Compound 61] it was 12400 nM; in that of `N#CN=S(=O)(c1ccc(Oc2cc(F)cc(C#N)c2)c2c1[C@H](O)[C@H](F)C2)C(F)F` (single isomer, unassigned) [Compound 63], 16100 nM; in that of `C=CCN=S(=O)(c1ccc(Oc2cc(F)cc(C#N)c2)c2c1[C@H](O)C(F)(F)C2)C(F)(F)F` (single isomer, unassigned) [Compound 72], 68 nM.
To `CS(=O)(=NC#N)c1ccc(Oc2cc(F)cc(C#N)c2)c2c1[C@H](O)C(F)(F)[C@H]2F` (single isomer, unassigned) [Compound 82] belongs 2400 nM.
In the case of `CS(=O)(=NC#N)c1ccc(Oc2cc(F)cc(C#N)c2)c2c1[C@@H](O)C(F)(F)[C@@H]2F` (single isomer, unassigned) [Compound 84], the IC50 is 1570 nM.
As to `CS(=O)(=NC#N)c1ccc(Oc2cc(F)cc(C#N)c2)c2c1[C@@H](O)C(F)(F)[C@@H]2F` (single isomer, unassigned) [Compound 86], the IC50 stood at 9900 nM.
In the case of `N=S1(=O)c2ccc(Oc3cc(F)cc(F)c3)c(C(F)F)c2C(O)C1(F)F` (single isomer, unassigned) [Compound 163, 4-(difluoromethyl)-5-(3,5-difluorophenoxy)-2,2-difluoro-3-hydroxy-1-imino-2,3-dihydro-1H-1λ^4-benzo[b]thiophene 1-oxide], the IC50 is 59 nM.
In the case of `O=S(=O)(c1ccc(Oc2ccc3[nH]ncc3c2)c2c1C(O)C(F)(F)C2)C(F)(F)F` (stereo not shown) [Compound 19, 4-((1H-Indazol-5-yl)oxy)-2,2-difluoro-7-((trifluoromethyl)sulfonyl)-2,3-dihydro-1H-inden-1-ol] it was 4900 nM.
Consider `C=C1CC(O)c2c(S(C)(=O)=O)ccc(Oc3cc(F)cc(Cl)c3)c21` (stereo not shown) [Compound 44, 4-(3-chloro-5-fluorophenoxy)-3-methylene-7-(methylsulfonyl)-2,3-dihydro-1H-inden-1-ol], for which the IC50 was 3390 nM.
In the case of `O=S(=O)(c1ccc(Oc2cc(F)cc(Cl)c2)c2c1[C@H](O)C[C@@H]2CO)C(F)(F)F` [Compound 45, (1R,3S)-4-(3-chloro-5-fluorophenoxy)-3-(hydroxymethyl)-7-((trifluoromethyl)sulfonyl)-2,3-dihydro-1H-inden-1-ol] it was 730 nM.
In the case of `CS(=O)(=O)N=S(=O)(CF)c1ccc(Oc2cc(F)cc(C#N)c2)c2c1[C@H](O)C(F)(F)C2` (stereo partly drawn) [Compound 48, N—(((S)-7-(3-cyano-5-fluorophenoxy)-2,2-difluoro-3-hydroxy-2,3-dihydro-1H-inden-4-yl)(fluoromethyl)(oxo)-λ^6-sulfanylidene)methanesulfonamide], the IC50 was determined as 5600 nM.
